Reference: patent US20240325398A1, “COMBINATION THERAPIES” (Infinity Pharmaceuticals, Inc., priority 2014, published 2024)

Experiments:
[1] = Tolerability and pharmacokinetics of Compound 1 with dexamethasone in non-tumor bearing mice; assay type: in vivo
Protocol: The effects of a combination of Compound 1 and dexamethasone were assessed in vivo in non-tumor bearing mice. Dexamethasone is an inducer of CYP2B6 and CYP3A4 and thus might be expected to decrease exposure of Compound 1. Tolerability of the combination was assessed in non-tumor bearing CD17.SCID female mice. Treatment was carried out for 14 days using the following treatment groups: 1) Vehicle 1 (5% NMP+95% PEG400)+Vehicle 2 (saline); 2) Compound 1 (50 mg/kg, QD, PO)+Vehicle 2; 3) Vehicle 1+Dex 1 (5 mg/kg, Q3D, IP); 4) Compound 1+Dex 1; 5) Vehicle 1+Dex 2 (1 mg/kg, Q3D, IP); 6) Compound 1+Dex 2. PEG400 refers to polyethylene glycol-400. NMP refers to N-methyl-2-pyrrolidone. Dex refers to dexamethasone. Q3D refers to administration every third day. PO refers to oral administration. IP refers to intraperitoneal administration. Plasma samples were collected on day 14 at the trough, 1, 2, 4, and 6 h post dose for pharmacokinetic analysis.

[2] = system: Compound 1-resistant SU-DHL-4 clones; experiment: CTG (Cell Titer Glo) IC50, Compound 1-resistant clones; assay type: cell-based; details: Compound 1-resistant clones versus control cells, FIG. 10
Protocol: (§1) The DMSO stock for each compound was diluted to 5 mM or 1 mM with DMSO. A 1:1000 dilution was performed into the plated cells (10 uL) for a final of 1 uM or 5 uM (final DMSO […]). Cells were counted 2 times per week and cell densities were adjusted back to 2.5×10^5 c/mL as needed. Media/Compound was replenished as needed and Media/Compound was replaced 1× per week. Compound treatment lasted for 28 days. Compound was washed out for 1 week and cells were subsequently used in assays to determine resistance after 4 weeks of treatment.
(§2) The cell line pool was treated with compound for an additional 28 days prior to subcloning. Altogether, the cell line pool was under selective pressure for a total of 8 weeks.
(§3) Cell lines were subcloned at 3, 1, and 0.3 cells per well (cpw). 1:10 of conditioned medium (CM) was included in medium in addition to corresponding DMSO control or compound. During subcloning optimization experiments, the SU-DHL-4 cell line could only be subcloned in the presence of 1:10 conditioned medium. […]
(§4) All cell lines subcloned grew out. […] Once expanded in a 24 well plate, the 12 clones per cell line were evaluated for viability by flow using the Dead_Live kit (Invitrogen #L23101).
Clones for parent, DMSO and Compound 1-R cell lines were selected based on their P1 vs P2 distribution determined by FSCH vs SSCH scatter plot. […]

[3] = system: ibrutinib-resistant SU-DHL-4 clones; experiment: CTG (Cell Titer Glo) IC50, ibrutinib-resistant clones; assay type: cell-based; details: ibrutinib clones 2B.3, 5C.3, 10B.3, 11D.3, 11G.3
Protocol: as §1, §2
as §3, with “medium. Conditioned medium (CM) was collected 4 days after splitting the parent cell line and when cells were approximately 90% confluent. Cells were spun down and the supernatant (CM) was collected down.” for “medium.”
as §4

[4] = system: HH; experiment: Combination study, ATPLite 72 h, dose matrix (Synergy Score, CI50); assay type: cell-based; details: combination with Compound 1
Protocol: (§5) The method is described as follows.
(§6) Additive effect is CI=1.0. […] Antagonistic effect is CI>1.0.
The Synergy Score is calculated as: […]

[5] = system: SUDHL6; experiment: Combination study of Example 1 (data not shown); assay type: cell-based; details: combination with Compound 1, SUDHL6 cell line
From the text: as §5, §6

[6] = system: OCI-Ly3; experiment: Combination study, ATPLite 72 h, dose matrix (Synergy Score, CI50)
[7] = system: KARPAS-299; experiment: as above; details: combination with Compound 1
Protocol: Cells are thawed from a liquid nitrogen preserved state. Once cells have been expanded and divide at their expected doubling times, screening begins. Cells are seeded in growth media in either black 1536-well or 384-well tissue culture treated plates. Cells are then equilibrated in assay plates via centrifugation and placed in incubators attached to the Dosing Modules at 37° C. for 24 hours before treatment. […] These Tzero (To) plates are read using ultra-sensitive luminescence on Envision plate readers (Perkin Elmer). Treated assay plates are incubated with compound for 72 hours. After 72 hours, plates are developed for endpoint analysis using ATPLite. All data points are collected via automated processes, quality controlled and analyzed using Zalicus software.
where T is treated cell count and V is untreated (vehicle) cell count (at 72 hours). I ranges from 0% (when T=V) to 100% (when T=0). […] The measure of effect in the experiment can be the inhibition of cellular response relative to the untreated level (vehicle alone). […] The inhibition ranges from 0% at the untreated level to 100% when T=0. Inhibition levels are negative for agents that actually increase levels. Other effect measures, such as an activity ratio r=T/V may be more appropriate for some assays. When activity ratios (e.g, fold increase over stimulated control) are being used, the effect can be measured using an induction 1=ln(T/V). With this definition, all effect expressions are the same as for inhibition.
Growth Inhibition (GI) is used as a measure of cell viability. […] A GI reading of 100% represents complete growth inhibition—T72 compound-treated and T0 vehicle signals are matched. […] A GI reading of 200% represents complete death of all cells in the culture well. Compounds reaching an activity plateau of GI 200% are considered cytotoxic. GI is calculated by applying the following test and equation:
Combination analysis data were collected in a 6×6 dose matrix. Synergy is calculated by comparing a combination's response to those of its single compound, against the drug-with-itself dose-additive reference model. Deviations from dose additivity may be assessed visually on an isobologram or numerically with a Combination Index (CI). […] Additive effect is CI=1.0. […] Antagonistic effect is CI>1.0.
To measure combination effects in excess of Loewe additivity, a scalar measure to characterize the strength of synergistic interaction termed the Synergy Score is devised. The Synergy Score is calculated as:
The fractional inhibition for each component agent and combination point in the matrix is calculated relative to the median of all vehicle-treated control wells. The Synergy Score equation integrates the experimentally-observed activity volume at each point in the matrix in excess of a model surface numerically derived from the activity of the component agents using the Loewe model for additivity. Additional terms in the Synergy Score equation (above) are used to normalize for various dilution factors used for individual agents and to allow for comparison of synergy scores across an entire experiment. The inclusion of positive inhibition gating or an Idata multiplier removes noise near the zero effect level, and biases results for synergistic interactions at that occur at high activity levels.
Loewe Volume (Loewe Vol) is used to assess the overall magnitude of the combination interaction in excess of the Loewe additivity model. Loewe Volume is particularly useful when distinguishing synergistic increases in a phenotypic activity (positive Loewe Volume) versus synergistic antagonisms (negative Loewe Volume). […] This model defines additivity as a non-synergistic combination interaction where the combination dose matrix surface should be indistinguishable from either drug crossed with itself.

[8] = as above; details: combination with Compound 1; OPM-2
[9] = system: OMP-2; experiment: as above; details: combination with Compound 1; OPM-2
[10] = combination with CAL-101, OCT-Ly3, Example 2
[11] = combination with Cmpd 1, OCT-Ly3, Example 2
[12] = combination with Compound 1, OCI-Ly3, 72 h

## C[C@H](Nc1ncnc2[nH]cnc12)c1cc2cccc(Cl)c2c(=O)n1-c1ccccc1 [Compound 1, (S)-3-(1-((9H-purin-6-yl)amino)ethyl)-8-chloro-2-phenylisoquinolin-1(2H)-one]
[1]; 50 mg/kg Compound 1 PO in combination with dexamethasone 5 mg/kg Q3D, versus Compound 1 alone
  Compound 1 plasma exposure: decrease
[1]; 50 mg/kg Compound 1 plus 1 mg/kg dexamethasone (Q3D) versus 50 mg/kg Compound 1 alone
  mean plasma concentration of Compound 1: relatively similar
[1]; co-administered with higher dose of dexamethasone, 5 mg/kg
  decrease of Compound 1 plasma exposure: about 30%
[1]; single agent versus combination with dexamethasone 1 mg/kg
  degree of Compound 1 exposure: similar
[2]
  average IC50 for inhibition of the resistant cells versus control cells: higher
[3]
  cross-resistance of ibrutinib-resistant clones: no cross-resistance

## C[C@@H]1C[C@H]2[C@@H]3CCC4=CC(=O)C=C[C@]4(C)[C@@]3(F)[C@@H](O)C[C@]2(C)[C@@]1(O)C(=O)CO [dexamethasone, (8S,9R,10S,11S,13S,14S,16R,17R)-9-Fluoro-11,17-dihydroxy-17-(2-hydroxyacetyl)-10,13,16-trimethyl-6,7,8,9,10,11,12,13,14,15,16,17-dodecahydro-3H-cyclopenta[a]phenanthren-3-one]
[4]
  CI50 growth inhibition: S (S=0.01 to <0.5)
  CI50 inhibition: S (S=0.01 to <0.5)
  Synergy Score growth inhibition: A3 (A3=>3)
  Synergy Score inhibition: A3 (A3=>3)
[5]
  synergy of the combination: significant synergy
[6]; [10]
  Synergy Score growth inhibition: A1 (A1=0.0001 to <1)
  Synergy Score inhibition: A1 (A1=0.0001 to <1)
[6]; [11]
  CI50 growth inhibition: W (W=≥1)
  Synergy Score growth inhibition: A1 (A1=0.0001 to <1)
  Synergy Score inhibition: A1 (A1=0.0001 to <1)
[6]; [12]
  CI50 growth inhibition: U (U=0.7 to <1)
  Synergy Score growth inhibition: A1 (A1=0.0001 to <1)
  Synergy Score inhibition: A1 (A1=0.0001 to <1)
[7]
  Synergy Score growth inhibition: A1 (A1=0.0001 to <1)
  Synergy Score inhibition: A1 (A1=0.0001 to <1)
[8]
  CI50 growth inhibition: S (S=0.01 to <0.5)
[9]
  CI50 inhibition: U (U=0.7 to <1)
  Synergy Score growth inhibition: A2 (A2=1 to <3)
  Synergy Score inhibition: A1 (A1=0.0001 to <1)
